Measurements: article PMC3206016, “Putting into Practice Domain-Linear Motif Interaction Predictions for Exploration of Protein Networks” (PLoS ONE, 2011)
pKd: −log10 of the molar value. Several values for one entry are separate records, joined by “and”; a condition that tells them apart may be missing. Identical values can stand only once. Like-named read-outs stand apart in the source and are kept apart here. Ends that are not written are not given here. Peptide text beside a SMILES is read from it. * marks the point of attachment. Biotin = O=C1N[C@H]2[C@H](CS[C@H]2CCCCC(=O)*)N1

Key:
Test in all cases: SPR binding of MBP-PDZ analyte to immobilised biotinylated peptides
MAGI1-2/6 PDZ domain = target: T1, MAGI1-2/6 PDZ domain (Mus musculus, UniProt Q6RHR9)
T1 construct: The cDNA encoding residues 448–572 and 613–752 of mouse MAGI-1 (UniProt acc.: Q6RHR9-1) encoding for MAGI1-2/6; made in house; host or cells: E. coli BL21 DE3
Protocol: (§1) We opted for the surface plasmon resonance (SPR) method to measure these 190 (19 proteins×2 peptide versions×5 PDZ constructs) interactions. In SPR various concentrations of “analytes” (here, PDZ domains fused to the Maltose Binding Protein (MBP)) flow over surfaces presenting attached “ligands” (here, biotinylated peptides). The amount of analyte interacting with the ligand is measured and quantified in response units (RU). The intensity of this signal is proportional to the binding strength of the assayed interaction (Figure 5A). K [drawing 13] were obtained using a 1∶1 interaction model. However, these calculated K [drawing 14] were rather inaccurate especially for weak interactions. Therefore, we preferred to rank the binding strengths of the 190 interactions using normalised RU signals at equilibrium ( [drawing 15] ) rather than K [drawing 16] (see Methods for details). These normalised [drawing 17] values were plotted in form of a heat map (Figure 5B).
(§2) The cDNA encoding residues 448–572 and 613–752 of mouse MAGI-1 (UniProt acc.: Q6RHR9-1) encoding for MAGI1-2/6 (100% identical to human MAGI1-2/6) and MAGI1-3/6 (99% identical to human MAGI1-3/6) PDZ domains, respectively, were inserted into the NcoI/KpnI sites of the pETM-41 expression vector (EMBL) containing a 6×His-MBP tag followed by a TEV protease cleavage site. A similar cloning strategy was adopted for cDNA bearing residues 997–1093, 1097–1193 and 997–1193 of human SCRIB (Uniprot acc.: Q14160-1) encoding for SCRIB-3/4, SCRIB-4/4 PDZ domains and SCRIB-34/4 tandem PDZ construct, respectively.
(§3) Data were collected on a Biacore 2000 instrument (Biacore AB/GE Healthcare Bio-Sciences Corp., Piscataway, NJ, USA) at 25 [drawing 74] C. SPR experiments (ligand immobilisation and binding measurements) have been performed as described in Fournane et al.. Briefly, biotinylated peptides (instead of GST-fused recombinant peptides) were immobilised on CM5 sensorchips on which Neutravidin was previously attached. The MBP-PDZ domain analyte was injected at 8 to 10 different concentrations ranging from 0 up to 30 [drawing 75] M. Data were processed using the BiaEvaluation 3.2 software (Biacore AB/GE Healthcare Bio-Sciences Corp.) using “double referencing” [78] in which sensorgrams were corrected for buffer effects and bulk refractive index changes.
(§4) The steady-state binding signal ( [drawing 76] ) was derived by averaging the signals in a five second window at equilibrium. Steady-state analysis was performed by fitting the average signal [drawing 77] as a function of total MBP-PDZ concentrations, assuming a simple 1∶1 interaction binding isotherm model. […] Reasons for this inaccuracy are likely to be the following: 1. As previously described, several repetitions of all the measurements are required to determine accurate K [drawing 81] . In our case, such repetitions were not achievable in reasonable time due to the large amount of interactions measured in this study. 2. The highest injected analyte concentration restricts the maximal K [drawing 82] (weakest interaction) that can be accurately obtained. 3. A K [drawing 83] is estimated based on a mathematical extrapolation of observed [drawing 84] signals leading to additional uncertainty. Based on these reasons, we considered the calculated K [drawing 85] not as accurate enough to be used for absolute binding strength comparison in this study. We rather performed a relative analysis of binding strengths using directly [drawing 86] signals which are not biased by any mathematical assumption. We focussed on [drawing 87] signals obtained at 10 [drawing 88] M MBP-PDZ concentration, which have been systematically measured in duplicate. The [drawing 89] signal is directly proportional to the molecular weight of the analyte and the amount of immobilised ligand. Therefore, the [drawing 90] signals were normalised taking those into account before being used for binding strength comparison. […]

[1] = target: T2, SCRIB-34/4 tandem PDZ construct (Homo sapiens, UniProt Q14160); conditions: SPR Biacore 2000, 25 C, steady state, 1:1 binding isotherm, MBP-PDZ 0-30 µM, to be considered with caution
T2 construct: residues 997–1093, 1097–1193 and 997–1193 of human SCRIB (Uniprot acc.: Q14160-1); made in house; host or cells: E. coli BL21 DE3
T2 sequence (Q14160 997-1193 isoform Q14160-1): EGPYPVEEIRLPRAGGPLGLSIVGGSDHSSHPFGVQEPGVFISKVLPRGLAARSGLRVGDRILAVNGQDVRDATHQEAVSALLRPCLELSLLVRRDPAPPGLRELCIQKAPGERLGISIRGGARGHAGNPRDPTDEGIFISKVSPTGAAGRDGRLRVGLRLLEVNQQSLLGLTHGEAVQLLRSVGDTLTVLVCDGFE
Protocol: as §1, §2, §3, §4

SCRIB-3/4 PDZ domain = target: T3, SCRIB-3/4 PDZ domain (Homo sapiens, UniProt Q14160); conditions: tentative KD, SPR Biacore 2000, 25 C, steady state, 1:1 binding isotherm, MBP-PDZ 0-30 µM; to be considered with caution
T3 construct: cDNA bearing residues 997–1093, 1097–1193 and 997–1193 of human SCRIB (Uniprot acc.: Q14160-1); made in house; host or cells: E. coli BL21 DE3
T3 sequence (Q14160 997-1093 isoform Q14160-1): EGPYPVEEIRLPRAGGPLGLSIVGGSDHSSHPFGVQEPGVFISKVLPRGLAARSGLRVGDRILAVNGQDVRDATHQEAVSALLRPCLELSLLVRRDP
Protocol: as §1, §2, §3, §4

SCRIB-4/4 PDZ domain = target: T4, SCRIB-4/4 PDZ domain (Homo sapiens, UniProt Q14160); conditions: SPR Biacore 2000, 25 C, steady state, 1:1 binding isotherm, MBP-PDZ 0-30 µM; to be considered with caution; read-out: tentative KD
T4 construct: residues 997–1093, 1097–1193 and 997–1193 of human SCRIB (Uniprot acc.: Q14160-1); made in house; host or cells: E. coli BL21 DE3
T4 sequence (Q14160 1097-1193 isoform Q14160-1): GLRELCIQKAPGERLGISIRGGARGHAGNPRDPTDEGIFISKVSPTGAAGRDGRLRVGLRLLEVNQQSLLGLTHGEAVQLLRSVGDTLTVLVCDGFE
Protocol: as §1, §2, §3, §4

MAGI1-3/6 PDZ domain = target: T5, MAGI1-3/6 PDZ domain (Mus musculus, UniProt Q6RHR9); conditions: SPR Biacore 2000, 25 C, steady state, 1:1 binding isotherm, MBP-PDZ 0-30 µM; to be considered with caution; read-out: tentative KD
T5 construct: The cDNA encoding residues 448–572 and 613–752 of mouse MAGI-1 (UniProt acc.: Q6RHR9-1); made in house; host or cells: E. coli BL21 DE3
Protocol: as §1, §2, §3, §4

T1 sequence (Q6RHR9 448-572): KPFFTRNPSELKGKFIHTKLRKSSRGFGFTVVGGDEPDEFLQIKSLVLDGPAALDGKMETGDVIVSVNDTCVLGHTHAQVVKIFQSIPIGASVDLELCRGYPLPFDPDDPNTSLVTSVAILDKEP
T5 sequence (Q6RHR9 613-752): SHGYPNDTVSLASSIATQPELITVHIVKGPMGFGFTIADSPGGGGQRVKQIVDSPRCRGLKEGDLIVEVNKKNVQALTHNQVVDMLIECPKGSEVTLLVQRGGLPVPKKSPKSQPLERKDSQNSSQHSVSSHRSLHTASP

Compound | pKd ([1]; read-out: tentative KD) | pKd (SCRIB-4/4 PDZ domain) | also measured
CC(C)C[C@H](NC(=O)[C@H](CCC(N)=O)NC(=O)[C@@H](NC(=O)[C@H](CCC(=O)O)NC(=O)[C@H](CCCNC(=N)N)NC(=O)[C@H](CCCNC(=N)N)NC(=O)[C@@H](NC(=O)[C@H](CCCNC(=N)N)NC(=O)[C@H](CO)NC(=O)[C@@H](N)CO)[C@@H](C)O)[C@@H](C)O)C(=O)O [16E6] |  |  | pKd (MAGI1-2/6 PDZ domain; this study (Kd), Table S3, column this study, SPR): 5.52; pKd ([1]; tentative KD): 5.52; pKd (SCRIB-3/4 PDZ domain): 4.74 and 4.82
CC(C)C[C@H](NC(=O)[C@H](CCC(N)=O)NC(=O)[C@@H](NC(=O)[C@H](CCC(=O)O)NC(=O)[C@H](CCCNC(=N)N)NC(=O)CNC(=O)[C@H](C)NC(=O)CNC(=O)[C@H](CO)NC(=O)CNC(=O)CCCC[C@@H]1SC[C@@H]2NC(=O)N[C@@H]21)[C@@H](C)O)C(=O)O [16E6_05] (Biotin-GSGAGRETQL-OH) |  |  | pKd (MAGI1-2/6 PDZ domain; tentative KD, SPR Biacore 2000, 25 C, steady state, 1:1 binding isotherm, MBP-PDZ 0-30 µM, to be considered with caution): 5.15; pKd ([1]; tentative KD): 6.00; pKd (SCRIB-3/4 PDZ domain): 4.92
CC(C)[C@H](NC(=O)[C@H](Cc1ccc(O)cc1)NC(=O)[C@H](CO)NC(=O)[C@H](CCC(=O)O)NC(=O)[C@H](CCCCN)NC(=O)CNC(=O)[C@H](C)NC(=O)CNC(=O)[C@H](CO)NC(=O)CNC(=O)CCCC[C@@H]1SC[C@@H]2NC(=O)N[C@@H]21)C(=O)O [ABC1_05] (Biotin-GSGAGKESYV-OH) | 5.00 |  | 
C[C@H](NC(=O)CNC(=O)[C@H](CO)NC(=O)CNC(=O)CCCC[C@@H]1SC[C@@H]2NC(=O)N[C@@H]21)C(=O)NCC(=O)N[C@@H](CCCCN)C(=O)N[C@@H](CCC(=O)O)C(=O)N[C@H](C(=O)N[C@@H](CO)C(=O)N[C@@H](Cc1ccccc1)C(=O)O)[C@@H](C)O [GLUT7_05] (Biotin-GSGAGKETSF-OH) | 5.30 |  | 
CC(C)[C@H](NC(=O)[C@@H](NC(=O)[C@@H](NC(=O)[C@H](CCC(=O)O)NC(=O)[C@@H](NC(=O)CNC(=O)[C@H](C)NC(=O)CNC(=O)[C@H](CO)NC(=O)CNC(=O)CCCC[C@@H]1SC[C@@H]2NC(=O)N[C@@H]21)C(C)C)[C@@H](C)O)C(C)C)C(=O)O [MAS_05] (Biotin-GSGAGVETVV-OH) | 4.80 | 3.36 | 
CC(C)C[C@H](NC(=O)[C@@H](NC(=O)[C@H](CCC(=O)O)NC(=O)[C@H](CCCCN)NC(=O)CNC(=O)[C@H](C)NC(=O)CNC(=O)[C@H](CO)NC(=O)CNC(=O)CCCC[C@@H]1SC[C@@H]2NC(=O)N[C@@H]21)[C@@H](C)O)C(=O)N[C@H](C(=O)O)C(C)C [NET1_05] (Biotin-GSGAGKETLV-OH) | 4.82 |  | pKd (MAGI1-3/6 PDZ domain): 4.64
CC[C@H](C)[C@H](NC(=O)CNC(=O)[C@H](C)NC(=O)CNC(=O)[C@H](CO)NC(=O)CNC(=O)CCCC[C@@H]1SC[C@@H]2NC(=O)N[C@@H]21)C(=O)N[C@@H](CCC(=O)O)C(=O)N[C@@H](CO)C(=O)N[C@@H](CC(N)=O)C(=O)N[C@H](C(=O)O)C(C)C [TANC1_05] (Biotin-GSGAGIESNV-OH) | 5.05 |  | 

Second part, led by results:

pKd ([1]; read-out: tentative KD) | pKd (SCRIB-4/4 PDZ domain) | Compound | also measured
 | 3.98 | CC(C)C[C@H](NC(=O)[C@@H](NC(=O)[C@H](CCC(=O)O)NC(=O)[C@@H]1CCCN1C(=O)CNC(=O)[C@H](C)NC(=O)CNC(=O)[C@H](CO)NC(=O)CNC(=O)CCCC[C@@H]1SC[C@@H]2NC(=O)N[C@@H]21)[C@@H](C)O)C(=O)N[C@H](C(=O)O)C(C)C [ARHGAP6_05] (Biotin-GSGAGPETLV-OH) | 
5.00 | 3.91 | CC(C)[C@H](NC(=O)[C@H](CCCNC(=N)N)NC(=O)[C@@H](NC(=O)[C@H](CCC(=O)O)NC(=O)[C@H](CCCCN)NC(=O)CNC(=O)[C@H](C)NC(=O)CNC(=O)[C@H](CO)NC(=O)CNC(=O)CCCC[C@@H]1SC[C@@H]2NC(=O)N[C@@H]21)[C@@H](C)O)C(=O)O [CYSLTR2_05] (Biotin-GSGAGKETRV-OH) | 
 | 3.05 | CC[C@H](C)[C@H](NC(=O)CNC(=O)[C@H](C)NC(=O)CNC(=O)[C@H](CO)NC(=O)CNC(=O)CCCC[C@@H]1SC[C@@H]2NC(=O)N[C@@H]21)C(=O)N[C@@H](C)C(=O)N[C@H](C(=O)N[C@@H](CCC(=O)O)C(=O)N[C@H](C(=O)O)C(C)C)[C@@H](C)O [DLL1_05] (Biotin-GSGAGIATEV-OH) | 
5.15 |  | CC(C)[C@H](NC(=O)[C@@H](NC(=O)[C@@H](NC(=O)[C@H](CCC(=O)O)NC(=O)[C@H](CCCCN)NC(=O)CNC(=O)[C@H](C)NC(=O)CNC(=O)[C@H](CO)NC(=O)CNC(=O)CCCC[C@@H]1SC[C@@H]2NC(=O)N[C@@H]21)[C@@H](C)O)C(C)C)C(=O)O [MARCH3_05] (Biotin-GSGAGKETVV-OH) | 
4.82 |  | CC[C@H](C)[C@H](NC(=O)[C@@H](NC(=O)[C@H](CCC(=O)O)NC(=O)[C@H](Cc1c[nH]cn1)NC(=O)CNC(=O)[C@H](C)NC(=O)CNC(=O)[C@H](CO)NC(=O)CNC(=O)CCCC[C@@H]1SC[C@@H]2NC(=O)N[C@@H]21)[C@@H](C)O)C(=O)N[C@H](C(=O)O)C(C)C [TMEM215_05] (Biotin-GSGAGHETIV-OH) | 
5.52 |  | CNTVTVETVV [MAS_10] | 
